Data published in patent US12522602B2, “Derivatives having 2,3-dihydro-1H-indene or 2,3-dihydrobenzofuran moiety or pharmaceutically acceptable salt thereof and pharmaceutical compositions comprising the same” (YUHAN CORPORATION, priority 2019, dated 2026).

Test system: GM1 production in Jurkat cells
Assay: cells
Assay type: cell-based
Conditions: Homo sapiens, Jurkat, 72 h

SMILES | IC50 [nM]
CC1(C)Cc2cc(-c3ccc(F)cc3)ccc2C1NC(=O)O[C@@H]1CN2CCC1CC2 (stereo partly drawn) [Example 73, (S)-quinuclidin-3-yl (5-(4-fluorophenyl)-2,2-dimethyl-2,3-dihydro-1H-inden-1-yl)carbamate] | 26
CC1(C)Cc2cc(-c3cc(C(F)(F)F)cc(C(F)(F)F)c3)ccc2C1NC(=O)O[C@@H]1CN2CCC1CC2 (stereo partly drawn) [Example 258, (S)-quinuclidin-3-yl (5-(3,5-bis(trifluoromethyl)phenyl)-2,2-dimethyl-2,3-dihydro-1H-inden-1-yl)carbamate] | 17.4
CCOc1ccc(Cl)cc1-c1ccc2c(c1)CC(C)(C)C2NC(=O)O[C@@H]1CN2CCC1CC2 (stereo partly drawn) [Example 212, (S)-quinuclidin-3-yl (5-(5-chloro-2-ethoxyphenyl)-2,2-dimethyl-2,3-dihydro-1H-inden-1-yl)carbamate] | 19.1
CC1(C)Cc2cc(-c3cccc(C(F)(F)F)c3)ccc2C1NC(=O)O[C@@H]1CN2CCC1CC2 (stereo partly drawn) [Example 79, (S)-quinuclidin-3-yl (2,2-dimethyl-5-(3-(trifluoromethyl)phenyl)-2,3-dihydro-1H-inden-1-yl)carbamate] | 3.9
COc1cc(-c2cc3c(cc2F)C(NC(=O)O[C@@H]2CN4CCC2CC4)C(C)(C)C3)ccn1 (stereo partly drawn) [Example 369, (S)-quinuclidin-3-yl (6-fluoro-5-(2-methoxypyridin-4-yl)-2,2-dimethyl-2,3-dihydro-1H-inden-1-yl)carbamate] | 172
CC1(C)Cc2cc(-c3ccc(OCC(F)(F)F)cc3)ccc2C1NC(=O)O[C@@H]1CN2CCC1CC2 (stereo partly drawn) [Example 116, (S)-quinuclidin-3-yl (2,2-dimethyl-5-(4-(2,2,2-trifluoroethoxy)phenyl)-2,3-dihydro-1H-inden-1-yl)carbamate] | 16.7
COc1cccc(OC)c1-c1ccc2c(c1)CC(C)(C)C2NC(=O)O[C@@H]1CN2CCC1CC2 (stereo partly drawn) [Example 168, (S)-quinuclidin-3-yl (5-(2,6-dimethoxyphenyl)-2,2-dimethyl-2,3-dihydro-1H-inden-1-yl)carbamate] | 9.6
CCC1(CC)Cc2cc(-c3ccc(C(C)C)cc3)ccc2C1NC(=O)O[C@@H]1CN2CCC1CC2 (stereo partly drawn) [Example 282, (S)-quinuclidin-3-yl (2,2-diethyl-5-(4-isopropylphenyl)-2,3-dihydro-1H-inden-1-yl)carbamate] | 5.6
COCCOc1cccc(-c2ccc3c(c2)CC(C)(C)C3NC(=O)O[C@@H]2CN3CCC2CC3)c1 (stereo partly drawn) [Example 98, (S)-quinuclidin-3-yl (5-(3-(2-methoxyethoxy)phenyl)-2,2-dimethyl-2,3-dihydro-1H-inden-1-yl)carbamate] | 7.5
CC1(C)CC(NC(=O)O[C@@H]2CN3CCC2CC3)c2ccc(-c3ccccc3Cl)cc21 (stereo partly drawn) [Example 400, (S)-quinuclidin-3-yl (5-(2-chlorophenyl)-3,3-dimethyl-2,3-dihydro-1H-inden-1-yl)carbamate] | 108
CCCOc1cccc(-c2cc3c(cc2OC)C(NC(=O)O[C@@H]2CN4CCC2CC4)C(C)(C)C3)c1 (stereo partly drawn) [Example 340, (S)-quinuclidin-3-yl (6-methoxy-2,2-dimethyl-5-(3-propoxyphenyl)-2,3-dihydro-1H-inden-1-yl)carbamate] | 43.8
CC1(C)Cc2cc(-c3ccco3)ccc2C1NC(=O)O[C@@H]1CN2CCC1CC2 (stereo partly drawn) [Example 193, (S)-quinuclidin-3-yl (5-(furan-2-yl)-2,2-dimethyl-2,3-dihydro-1H-inden-1-yl)carbamate] | 15.3
COCCOc1cccc(-c2ccc3c(c2)CC2(CC2)C3NC(=O)O[C@@H]2CN3CCC2CC3)c1 (stereo partly drawn) [Example 396, (S)-quinuclidin-3-yl (5′-(3-(2-methoxyethoxy)phenyl)-1′,3′-dihydrospiro[cyclopropane-1,2′-inden]-1′-yl)carbamate] | 39.6
CCC1(CC)Cc2cc(-c3ccc(OCC4CC4)nc3)ccc2C1NC(=O)O[C@@H]1CN2CCC1CC2 (stereo partly drawn) [Example 308, (S)-quinuclidin-3-yl (5-(6-(cyclopropylmethoxy)pyridin-3-yl)-2,2-diethyl-2,3-dihydro-1H-inden-1-yl)carbamate] | 5.5
CC(C)Cc1ccc(-c2ccc3c(c2)CC(C)(C)C3NC(=O)O[C@@H]2CN3CCC2CC3)cc1 (stereo partly drawn) [Example 161, (S)-quinuclidin-3-yl (5-(4-isobutylphenyl)-2,2-dimethyl-2,3-dihydro-1H-inden-1-yl)carbamate] | 10.8
CCOc1ccc(-c2ccc3c(c2)CC(C)(C)C3NC(=O)O[C@@H]2CN3CCC2CC3)cc1C(F)(F)F (stereo partly drawn) [Example 170, (S)-quinuclidin-3-yl (5-(4-ethoxy-3-(trifluoromethyl)phenyl)-2,2-dimethyl-2,3-dihydro-1H-inden-1-yl)carbamate] | 13
COc1cc2c(cc1-c1cc(C)c(OC(C)C)c(C)c1)CC(C)(C)C2NC(=O)O[C@@H]1CN2CCC1CC2 (stereo partly drawn) [Example 348, (S)-quinuclidin-3-yl (5-(4-isopropoxy-3,5-dimethylphenyl)-6-methoxy-2,2-dimethyl-2,3-dihydro-1H-inden-1-yl)carbamate] | 44.1
CC1(C)Cc2cc(-c3ccc(C(F)(F)F)cc3)ccc2C1NC(=O)O[C@@H]1CN2CCC1CC2 (stereo partly drawn) [Example 75, (S)-quinuclidin-3-yl (2,2-dimethyl-5-(4-(trifluoromethyl)phenyl)-2,3-dihydro-1H-inden-1-yl)carbamate] | 8.3

SMILES | IC50 [nM]
CC1(C)Cc2cc(-c3ccc(F)cc3F)ccc2C1NC(=O)O[C@@H]1CN2CCC1CC2 (stereo partly drawn) [Example 89, (S)-quinuclidin-3-yl (5-(2,4-difluorophenyl)-2,2-dimethyl-2,3-dihydro-1H-inden-1-yl)carbamate] | 50
CC1(C)Cc2cc(-c3ccsc3)ccc2C1NC(=O)O[C@@H]1CN2CCC1CC2 (stereo partly drawn) [Example 137, (S)-quinuclidin-3-yl (2,2-dimethyl-5-(thiophen-3-yl)-2,3-dihydro-1H-inden-1-yl)carbamate] | 12.1
CCOc1ccc(-c2cc3c(cc2OC)C(NC(=O)O[C@@H]2CN4CCC2CC4)C(C)(C)C3)cc1 (stereo partly drawn) [Example 318, (S)-quinuclidin-3-yl (5-(4-ethoxyphenyl)-6-methoxy-2,2-dimethyl-2,3-dihydro-1H-inden-1-yl)carbamate] | 20
CC1(C)CC(NC(=O)O[C@@H]2CN3CCC2CC3)c2ccc(-c3cccc(Cl)c3)cc21 (stereo partly drawn) [Example 399, (S)-quinuclidin-3-yl (5-(3-chlorophenyl)-3,3-dimethyl-2,3-dihydro-1H-inden-1-yl)carbamate] | 43.6
CCc1cccc(-c2ccc3c(c2)CC(CC)(CC)C3NC(=O)O[C@@H]2CN3CCC2CC3)c1 (stereo partly drawn) [Example 292, (S)-quinuclidin-3-yl (2,2-diethyl-5-(3-ethylphenyl)-2,3-dihydro-1H-inden-1-yl)carbamate] | 7.8
CC1(C)Cc2cc(-c3ccc(OCC4CC4)nc3)ccc2C1NC(=O)O[C@@H]1CN2CCC1CC2 (stereo partly drawn) [Example 185, (S)-quinuclidin-3-yl (5-(6-(cyclopropylmethoxy)pyridin-3-yl)-2,2-dimethyl-2,3-dihydro-1H-inden-1-yl)carbamate] | 11.1
COc1ccc(F)c(-c2ccc3c(c2)CC(C)(C)C3NC(=O)O[C@@H]2CN3CCC2CC3)c1 (stereo partly drawn) [Example 230, (S)-quinuclidin-3-yl (5-(2-fluoro-5-methoxyphenyl)-2,2-dimethyl-2,3-dihydro-1H-inden-1-yl)carbamate] | 30.8
CC1(C)Cc2cc(-c3cc(C(F)(F)F)ccc3Cl)ccc2C1NC(=O)O[C@@H]1CN2CCC1CC2 (stereo partly drawn) [Example 221, (S)-quinuclidin-3-yl (5-(2-chloro-5-(trifluoromethyl)phenyl)-2,2-dimethyl-2,3-dihydro-1H-inden-1-yl)carbamate] | 16.9
CC1(C)Cc2cc(-c3cc(F)c(F)cc3F)ccc2C1NC(=O)O[C@@H]1CN2CCC1CC2 (stereo partly drawn) [Example 96, (S)-quinuclidin-3-yl (2,2-dimethyl-5-(2,4,5-trifluorophenyl)-2,3-dihydro-1H-inden-1-yl)carbamate] | 16.2
COCCOc1ccc(-c2ccc3c(c2)CC(C)(C)C3NC(=O)O[C@@H]2CN3CCC2CC3)cn1 (stereo partly drawn) [Example 267, (S)-quinuclidin-3-yl (5-(6-(2-methoxyethoxy)pyridin-3-yl)-2,2-dimethyl-2,3-dihydro-1H-inden-1-yl)carbamate] | 83.1
CCOc1c(C)cc(-c2cc3c(cc2F)C(NC(=O)O[C@@H]2CN4CCC2CC4)C(C)(C)C3)cc1C (stereo partly drawn) [Example 367, (S)-quinuclidin-3-yl (5-(4-ethoxy-3,5-dimethylphenyl)-6-fluoro-2,2-dimethyl-2,3-dihydro-1H-inden-1-yl)carbamate] | 68.2
COc1cc2c(cc1-c1cccc(OCC(C)C)c1)CC(C)(C)C2NC(=O)O[C@@H]1CN2CCC1CC2 (stereo partly drawn) [Example 343, (S)-quinuclidin-3-yl (5-(3-isobutoxyphenyl)-6-methoxy-2,2-dimethyl-2,3-dihydro-1H-inden-1-yl)carbamate] | 45.7
CC1(C)Cc2cc(-c3ccc(Cl)cc3)ccc2C1NC(=O)O[C@@H]1CN2CCC1CC2 (stereo partly drawn) [Example 74, (S)-quinuclidin-3-yl (5-(4-chlorophenyl)-2,2-dimethyl-2,3-dihydro-1H-inden-1-yl)carbamate] | 13
O=C(NC1CCc2ccc(-c3ccc(Cl)c(Cl)c3)cc21)O[C@@H]1CN2CCC1CC2 (stereo partly drawn) [Example 47, (S)-quinuclidin-3-yl (6-(3,4-dichlorophenyl)-2,3-dihydro-1H-inden-1-yl)carbamate] | 26.6
CC1(C)Cc2ccc(-c3cc(F)ccc3F)cc2C1NC(=O)O[C@@H]1CN2CCC1CC2 (stereo partly drawn) [Example 65, (S)-quinuclidin-3-yl (6-(2,5-difluorophenyl)-2,2-dimethyl-2,3-dihydro-1H-inden-1-yl)carbamate] | 56.2
O=C(NC1CCc2cc(-c3ccccc3C(F)(F)F)ccc21)O[C@@H]1CN2CCC1CC2 (stereo partly drawn) [Example 11, (S)-quinuclidin-3-yl (5-(2-(trifluoromethyl)phenyl)-2,3-dihydro-1H-inden-1-yl)carbamate] | 123
CC1(C)Cc2cc(-c3cc4ccccc4o3)ccc2C1NC(=O)O[C@@H]1CN2CCC1CC2 (stereo partly drawn) [Example 158, (S)-quinuclidin-3-yl (5-(benzofuran-2-yl)-2,2-dimethyl-2,3-dihydro-1H-inden-1-yl)carbamate] | 17.1
CCc1ccc(-c2cc3c(cc2OC)C(NC(=O)O[C@@H]2CN4CCC2CC4)C(C)(C)C3)cc1 (stereo partly drawn) [Example 312, (S)-quinuclidin-3-yl (5-(4-ethylphenyl)-6-methoxy-2,2-dimethyl-2,3-dihydro-1H-inden-1-yl)carbamate] | 13.1
